Data: patent US5623080A, “Fluorone and pyronin Y derivatives” (Spectra Group Limited, Inc., priority 1995, dated 1997)

What was measured:
solubility = type: physicochemical
[1] = absorption wavelength (λmax) and extinction (ε); type: physicochemical; conditions: for λmax in EtOH (first value) / ε (first value): Table 1, EtOH; for ε (first value): at first λmax, in M-1cm-1 (unit assumed); for λmax: synthesis example
pencil hardness = test: pencil hardness
Experimental: (§1) To a resin formulation consisting of 15 parts urethane diacrylate, 15 parts DPHPA, 20 parts TPGDA and 40 parts TMPTA was added DIDMA, initiator and (4-octyloxyphenyl)phenyliodonium hexafluoroantimonate (OPPI). The samples were coated to a thickness of 15 microns and exposed to a 75 W tungsten halogen dental lamp (focused through an optical fiber) at a distance of 0.75 inch at which the Light intensity was about 0.40 W/cm^2. The molar ratios are indicative of the amounts of fluorone to onium salt to amine coinitiator. The double bond conversion was determined by FTIR spectroscopy. The pencil hardness of a given test sample is measured by holding a pencil at a 45° angle to the sample and drawing across it towards the person testing it. Using the pencils in an order from softest to hardest, the first pencil that scratches the surface is assigned as the pencil hardness of the sample. The pencil hardness scale is as follows from softest to hardest: 4B, 3B, 2B, B, HB, H, 2H, 3H, 4H, 6H. For instance, if a 2H pencil is the first pencil to scratch the surface then the pencil hardness is 2H.
At the extreme ends of the scale, it is impossible to determine the actual pencil hardness. […] Likewise, if the 4B pencil scratches the sample, the only assignment that can be made is <4B, unless it is a lot softer than 4B in which case a <<4B can be assigned. A pencil hardness of 4H is generally considered satisfactory. Pencil hardness data was greater than 6H after 30 seocnd exposure for all samples except for the control samples without amine (1:2:0). The controls were all less than 4B an 0.05 wt %, 0.10 wt %, and 0.15 wt %.
Photosensitive compositions were prepared from the resin formulation of Example 35 containing 1% NPG and 0.05% DIBF or 0.05% DIEF. The samples were exposed under the conditions shown in the following table and pencil hardness was measured.
Diphenyliodonium hexafluoroantimonate was added to DIBF samples.
Samples were also prepared using 1% DIDMA in addition to the fluorone for a 20:1 weight ratio.
Samples were also prepared from the same resin formulation containing 0.1% DIBF in addition to the coinitiator listed in the following Table 9 with the exposure condition and pencil hardness results shown.
Using the resin formulation of Example 36, photosensitive compositions were prepared using TIHF, DIDMA and OPPI at a concentration of 0.21% and in the molar ratios shown in Table 10 which follows. Exposure was conducted with the dental lamp at a distance of 1 inch from the sample to provide an intensity of about 0.26 W/cm^2. Molar ratios are fluorone:onium salt:amine.

film speed = conditions: addition of coinitiator to onium salt composition
Description: Examples of onium salts useful in the invention can be found in published European Patent Application 0 408227A1. The preferred onium salts for use in the invention are diphenyliodonium salts such as diphenyliodonium hexafluorophosphate, arsenates, antimonates, etc., and, more particularly,hexafluoro-antimonate. Onium salts of simple anions such as chlorides, bromides, etc. are also useful in free radical polymerizable compositions. A particularly preferred onium salt is OPPI below. Addition of a coinitiator such as NPG improves film speed, pencil hardness and double bond conversion. A particularly preferred initiator system is a combination of an iodofluorone in accordance with the invention such as TIHF or DIBF, an amine such as NPG or DIDMA and an onium salt. A preferred molar ratio of fluorone to onium salt to amine is about 1:2:3. […] These onium salt formulations are illustrated in the following Examples 35-37.

[2] = double bond conversion (C=C% Conversion) by FTIR; conditions: addition of coinitiator to onium salt composition
Experimental: as §1

fluorescence (λf, φf) = type: physicochemical
Description: In Table 2 below, the properties of the foregoing initiators are shown:
Entries in the table are in the solvents according to the following order.

[3] = oxidation and reduction potentials (Eox, Ered); type: physicochemical; conditions: in V (unit assumed)
Description: (§2) In Table 2 below, the properties of the foregoing initiators are shown: […]

pKa = type: physicochemical
Description: as §2

depth of cure = conditions: other fluorone dyes
Description: One of the advantages of the fluorone dye photoinitiators in this invention is the depth of the cure that is obtainable. This is in contrast to UV photoinitators that causes a "screening" effect which prevents the UV light from penetrating beyond a certain […] depth, usually several millimeters. By contrast, the fluorone dye bleaches as it photoinitiates and is concommitantly converted into a non-visible absorbing species thus allowing more visible light to penetrate which continues the cure. This cascading bleaching effect permits substantial depth of cure which can easily reach several inches.
An acrylate monomer mixture was composed of 15 parts urethane diacrylate, 20 parts TPGPA, 40 parts TMPTA and 15 parts DPHPA, and a 20 to 1 weight ratio of NPG coinitiator to DIEF or DIBF fluorone dye. For dye concentrations of 0.01, 0.05 and 0.1 weight, all the formulations cured to a depth of 3 cm in 30 seconds when exposed to a 350 watt tungsten halogen light which provides about 500 mw/cm^2 irradiance. When the irradiance was increased to about 2 watts/cm^2 cure speed was shortened to 5 seconds for the same depth.
An acrylate mixture was composed of 60% urethane diacrylate, 30% DPHPA, 10% BDDA, and 0.05 weight % of DIEF or DIBF fluorone dye with 2 weight % of DIDMA. The formulation cure to a depth greater than 1 cm in 10 seconds when exposed to a 75 watt tungsten halogen lamp which provided an irradiance of about 260 mw/cm^2.
An acrylate mixture was composed of 33% TMPTA, 33% DPHPA, 33% Epoxy acrylate, and 2% of DIDMA with either 0.01, 0.05 or 0.1 weight % of DIEF. All samples cured to a depth greater than 1 cm in 10 seconds when exposed to a 75 watt tungsten halogen.
An acrylate mixture was composed of 70% urethane diacrylate, 5% DPHPA, 25% BDDA, and 2% DIDMA with either 0.01, 0.03 or 0.1 weight % DIEF. The 0.01 and 0.03 samples cured after 2 passes through a 300 watt per inch medium pressure mercury arc lamp at a speed of 50 feet/minute to a depth greater than 3 mm. The 0.1 sample cured to a depth of greater than 1.5 mm.

## CCCCCCCC(=O)c1cc2cc3cc(I)c(=O)c(I)c-3oc2c(I)c1O [Compound 17, 3-hydroxy-4,5,7-triiodo-2octanoyl-6-fluorone]
solubility
  solubility in CDCl3: almost no solubility
solubility; DMSO
  solubility in DMSO: poor solubility
[1]
  λmax in EtOH (first value): 538
  ε (first value): 84,800

## CCCCCCCC(=O)c1cc2c(C#N)c3cc(I)c(=O)c(I)c-3oc2c(I)c1O [Compound 18, 9-cyano-3-hydroxy-4,5,7-triiodo-2-octanoyl-6-fluorone]
solubility
  solubility in CDCl3: very good solubility
[1]
  λmax in EtOH (first value): 636
  ε (first value): 17,000
[1]; comparison
  absorption wavelength: 638 nm

## O=C(O)CNc1ccccc1 [NPG, N-phenylglycine, reference compound]
Pencil hardness; addition of coinitiator to onium salt composition
  Pencil hardness: improves
Film speed
  film speed: improves
[2]
  double bond conversion: improves

## O=c1c(Br)cc2cc3cc(Br)c(O)c(Br)c3oc-2c1Br [TBHF, 3-hydroxy-2,4,5,7-tetrabromo-6-fluorone]
Fluorescence (λf, φf)
  φf: .52
Fluorescence (λf, φf); MeOH
  λf: 539 nm
[1]
  λmax in EtOH (first value): 530
  ε (first value): 39300
[1]; methanol
  λmax: 526 nm
[3]
  Eox: 1.099
  Ered: -.95
pKa
  pKa: 3.28

## O=c1c(I)cc2cc3cc(I)c(O)c(I)c3oc-2c1I [TIHF, 3-hydroxy-2,4,5,7-tetraiodo-6-fluorone]
Fluorescence (λf, φf)
  φf: .13
Pencil hardness; 0.21%, TIHF:OPPI:DIDMA (1:1:0), dental lamp 60 sec.
  Pencil hardness: 4H
Pencil hardness; 0.21%, TIHF:OPPI:DIDMA (1:1:1), dental lamp 60 sec.
  Pencil hardness: 5-6H
Pencil hardness; 0.21%, TIHF:OPPI:DIDMA (1:1:5), dental lamp 60 sec.
  Pencil hardness: > 6H
Pencil hardness; 0.21%, TIHF:OPPI:DIDMA (1:1:10), dental lamp 60 sec.
  Pencil hardness: > 6H
Pencil hardness; 0.21%, TIHF:OPPI:DIDMA (1:1:33), dental lamp 60 sec.
  Pencil hardness: > 6H
Pencil hardness; 0.21%, TIHF:OPPI:DIDMA (1:2:0), dental lamp 60 sec.
  Pencil hardness: 5-6H
Pencil hardness; 0.21%, TIHF:OPPI:DIDMA (1:2:5), dental lamp 60 sec.
  Pencil hardness: > 6H
Pencil hardness; 0.21%, TIHF:OPPI:DIDMA (1:2:10), dental lamp 60 sec.
  Pencil hardness: > 6H
Pencil hardness; 0.21%, TIHF:OPPI:DIDMA (1:2:33), dental lamp 60 sec.
  Pencil hardness: > 6H
Pencil hardness; 0.21%, TIHF:OPPI:DIDMA (1:5:)), dental lamp 60 sec.
  Pencil hardness: 5-6H
Pencil hardness; 0.21%, TIHF:OPPI:DIDMA (1:10:0), dental lamp 60 sec.
  Pencil hardness: 5-6H
[1]
  λmax in EtOH (first value): 536
  ε (first value): 91200
[1]; ethanol
  λmax: 536 nm
Depth of cure
  depth of cure results: have also been observed
[3]
  Eox: 1.04
  Ered: -.95
pKa
  pKa: 4.08
